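Cells were grown in 96-well plates and exposed to each compound for 48 hours at five concentrations; endpoints were interpolated linearly between bracketing concentrations, or set to the highest concentration if not reached. The concentration for 50% growth inhibition is given as GI50.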 Calls of active or inactive are those of the source. Cut-off read from the data, not from the text of the source: active = GI50 up to about 1.1 µM and inactive = higher.
Assays:
Test in all cases: NCI-60 cell line screen, 48 h
786-0 = test system: 786-0
A549 = test system: A549
ACHN = test system: ACHN
BT-549 = test system: BT-549
CAKI-1 = test system: CAKI-1
CCRF-CEM = test system: CCRF-CEM
COLO 205 = test system: COLO 205
DU-145 = test system: DU-145
EKVX = test system: EKVX
HCC 2998 = test system: HCC 2998
HCT-116 = test system: HCT-116
HCT-15 = test system: HCT-15
HL-60 = test system: HL-60
HOP-62 = test system: HOP-62
HOP-92 = test system: HOP-92
HT-29 = test system: HT-29
Hs-578T = test system: Hs-578T
IGROV-1 = test system: IGROV-1
K562 = test system: K562
KM12 = test system: KM12
LOX IMVI = test system: LOX IMVI
M14 = test system: M14
MCF7 = test system: MCF7
MDA-MB-231 = test system: MDA-MB-231
MDA-MB-435 = test system: MDA-MB-435
MDA-N = test system: MDA-N
MOLT-4 = test system: MOLT-4
Malme-3M = test system: Malme-3M
NCI-H226 = test system: NCI-H226
NCI-H23 = test system: NCI-H23
NCI-H460 = test system: NCI-H460
NCI-H522 = test system: NCI-H522
NCI/ADR-RES = test system: NCI/ADR-RES
OVCAR-3 = test system: OVCAR-3
OVCAR-4 = test system: OVCAR-4
OVCAR-5 = test system: OVCAR-5
OVCAR-8 = test system: OVCAR-8
PC-3 = test system: PC-3
RXF 393 = test system: RXF 393
SF-268 = test system: SF-268
SF-539 = test system: SF-539
SK-MEL-28 = test system: SK-MEL-28
SK-MEL-2 = test system: SK-MEL-2
SK-MEL-5 = test system: SK-MEL-5
SK-OV-3 = test system: SK-OV-3
SN12C = test system: SN12C
SNB-19 = test system: SNB-19
SNB-75 = test system: SNB-75
SR = test system: SR
SW-620 = test system: SW-620
T47D = test system: T47D
TK-10 = test system: TK-10
U-251 = test system: U-251
UACC-257 = test system: UACC-257
UACC-62 = test system: UACC-62
UO-31 = test system: UO-31
A498 = test system: A498
RPMI-8226 = test system: RPMI-8226
SF-295 = test system: SF-295

Measured: GI50

Cc1ccc(S(=O)(=O)Oc2ccc(OS(=O)(=O)c3ccc(C)cc3)c3c2C(=O)c2ccccc2C3=O)cc1
> 100 µM: HCT-15
inactive: 786-0 50.7 µM | A549 > 100 µM | ACHN > 100 µM | BT-549 > 100 µM | CAKI-1 > 100 µM | CCRF-CEM > 100 µM | COLO 205 > 100 µM | DU-145 > 100 µM | EKVX > 100 µM | HCC 2998 > 100 µM | HCT-116 > 100 µM | HL-60 > 100 µM | HOP-62 37.8 µM | HOP-92 > 100 µM | HT-29 > 100 µM | Hs-578T 38.7 µM | IGROV-1 > 100 µM | K562 > 100 µM | KM12 > 100 µM | LOX IMVI > 100 µM | M14 > 100 µM | MCF7 > 100 µM | MDA-MB-231 66.7 µM | MDA-MB-435 > 100 µM | MDA-N > 100 µM | MOLT-4 > 100 µM | Malme-3M > 100 µM | NCI-H226 > 100 µM | NCI-H23 > 100 µM | NCI-H460 > 100 µM | NCI-H522 > 100 µM | NCI/ADR-RES > 100 µM | OVCAR-3 > 100 µM | OVCAR-4 > 100 µM | OVCAR-5 > 100 µM | OVCAR-8 > 100 µM | PC-3 > 100 µM | RXF 393 23.6 µM | SF-268 > 100 µM | SF-539 33 µM | SK-MEL-28 > 100 µM | SK-MEL-2 > 100 µM | SK-MEL-5 > 100 µM | SK-OV-3 > 100 µM | SN12C > 100 µM | SNB-19 54.6 µM | SNB-75 16.8 µM | SR > 100 µM | SW-620 > 100 µM | T47D > 100 µM | TK-10 > 100 µM | U-251 > 100 µM | UACC-257 > 100 µM | UACC-62 > 100 µM | UO-31 33.8 µM

O=C1/C(=C/c2ccccc2S)N=C(c2ccccc2)N1c1nc2ccc(Sc3ccccc3)cc2[nH]1
inactive: 786-0 28.1 µM | A498 26.2 µM | A549 36.6 µM | ACHN 50.5 µM | BT-549 22.1 µM | CAKI-1 34.1 µM | CCRF-CEM 21 µM | COLO 205 20.4 µM | DU-145 34.9 µM | EKVX 46.6 µM | HCC 2998 22.7 µM | HCT-116 33.4 µM | HL-60 19.8 µM | HOP-62 41.9 µM | HOP-92 81.3 µM | HT-29 20.2 µM | Hs-578T 28.2 µM | IGROV-1 49.4 µM | K562 24.1 µM | KM12 27.6 µM | LOX IMVI 34 µM | M14 20.4 µM | MCF7 27 µM | MDA-MB-231 26.1 µM | MDA-MB-435 12.4 µM | MDA-N 14.7 µM | MOLT-4 35.4 µM | Malme-3M 37.8 µM | NCI-H23 37 µM | NCI-H460 21.9 µM | NCI-H522 22.8 µM | NCI/ADR-RES 22 µM | OVCAR-3 21.6 µM | OVCAR-4 35.2 µM | OVCAR-5 32.4 µM | OVCAR-8 34.5 µM | PC-3 32.2 µM | RPMI-8226 23.9 µM | RXF 393 28.2 µM | SF-268 38.3 µM | SF-295 27.4 µM | SK-MEL-28 36.5 µM | SK-MEL-2 17.8 µM | SK-MEL-5 18.4 µM | SK-OV-3 43.1 µM | SN12C 26.4 µM | SNB-19 45.3 µM | SNB-75 22.3 µM | SW-620 29.9 µM | T47D 28.8 µM | TK-10 27 µM | U-251 21.3 µM | UACC-257 23.6 µM | UACC-62 21.9 µM | UO-31 36.3 µM
31.9 µM: HCT-15
